Patent publication US20240368133A1, “Compounds for the Treatment of Pain, in Particular, Neuropathic Pain, and/or Other Diseases or Disorders that are Associated with AT2R and/or AT2R Mediated Signaling” (Confo Therapeutics N.V., priority 2021, published 2024)
pIC50: −log10 of the molar value.

Assays:
human AT1R = human AT1R (Homo sapiens (Human), UniProt P30556); test: Counterscreen radioligand binding assay, displacement of 125I-[Sar1, Ile8]-Angiotensin II, hAT1R WT; conditions: for inhibition at 1 µM / inhibition at 10 µM: 125I-[Sar1, Ile8]-Ang II, semi-quantitative score; for inhibition at 1 µM: compound at 1 μM, read-out: % Displaced radioligand at 1 μM; for inhibition at 10 µM: compound at 10 μM, read-out: % Displaced radioligand at 10 μM; for pIC50: HEK-293 cell membranes, read-out: Binding affinity On hAT1R IC50
Description: (§1) All synthesized ligands were evaluated in a radioligand assay by displacing ^125I-[Sar1, Ile8]-Angiotensin II (Perkin Elmer, NEX248050UC) from human AT2R fused to Cb23 or human/rodent/cynomolgus/minipig/dog WT AT2R in HEK-293 cells membrane preparations, using C21 (Vicore Pharma) and Angiotensin II (endogenous ligand) as reference. The affinity was determined using an eight-point dose-response curve, each point performed in duplicates. The compounds were also evaluated in a counterscreen binding assay for displacement of ^125I-[Sar1, Ile8]-Angiotensin II binding to human AT1R in HEK-293 cell membranes. For AT1R, the percent displacement was determined at 1 μM and […] (in duplicates) or using an eight-point dose-response curve, each point performed in duplicates with Candesartan and Losartan used as reference.
(§2) For the AT2R/AT1R binding assays, cell membranes, expressing AT2R_Cb23, AT2R or AT1R, were incubated with 0.05 nM ^125I-[Sarl, Ile8]-Ang II. The ligand competition assay was performed in a total volume of 100 μL assay buffer (50 mM Tris, 5 mM MgCl2, 1 mM EDTA, 0.1% BSA, pH 7.4), at concentrations ranging from […] to 10 μM. For each experiment, each ligand concentration was tested in duplicate. Non-specific binding (NSB) was determined by the inclusion of 10 μM unlabeled [Sarl]-Ang II (Sigma Aldrich). The reaction was initiated by the addition of radioligand, after which the plates were incubated at 25° C. for one hour. The reaction was terminated by rapid filtration using a vacuum harvester, applying six washes with 100 μL of ice-cold wash buffer (50 mM Tris.HCl, pH 7.4). The filter plates GF/C (Perkin Elmer) were pre-soaked in 0.5% PEI. The residual amount of radioactivity was determined via liquid scintillation counting. IC50 values, representing the concentration at which each ligand displaced 50% of ^125I-[Sarl, Ile8]-Ang II, were calculated using GraphPad Prism 7.02 by applying a Non-linear regression equation (variable slope, four parameters) on the data. The obtained values serve as affinity estimates for each ligand and their ability to compete against the radioligand for binding with AT2R or AT1R, respectively.

human AT2R fused to Cb23 = human AT2R fused to Cb23 (Homo sapiens, UniProt P50052); test: Radioligand binding assay, displacement of 125I-[Sar1, Ile8]-Angiotensin II, hAT2R Cb23; conditions: displacement of 125I-[Sar1, Ile8]-Angiotensin II, human AT2R fused to Cb23, HEK-293 cell membrane preparations; read-out: Binding affinity on hAT2R_Cb23 IC50
Description: as §1, §2

human AT2R fused to Cb23, sequence (P50052 whole entry, looked up, the tested form may be a part): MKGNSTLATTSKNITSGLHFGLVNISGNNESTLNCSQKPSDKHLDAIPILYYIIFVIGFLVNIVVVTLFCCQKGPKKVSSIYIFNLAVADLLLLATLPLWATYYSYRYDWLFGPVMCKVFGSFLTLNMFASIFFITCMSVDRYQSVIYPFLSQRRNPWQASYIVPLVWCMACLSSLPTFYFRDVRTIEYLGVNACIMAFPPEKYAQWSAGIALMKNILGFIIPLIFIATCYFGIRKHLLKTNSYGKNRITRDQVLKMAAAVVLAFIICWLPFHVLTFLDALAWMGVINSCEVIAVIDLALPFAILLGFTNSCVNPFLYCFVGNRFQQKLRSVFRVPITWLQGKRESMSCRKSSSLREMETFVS
human AT1R, sequence (P30556 whole entry, the tested form may be a part): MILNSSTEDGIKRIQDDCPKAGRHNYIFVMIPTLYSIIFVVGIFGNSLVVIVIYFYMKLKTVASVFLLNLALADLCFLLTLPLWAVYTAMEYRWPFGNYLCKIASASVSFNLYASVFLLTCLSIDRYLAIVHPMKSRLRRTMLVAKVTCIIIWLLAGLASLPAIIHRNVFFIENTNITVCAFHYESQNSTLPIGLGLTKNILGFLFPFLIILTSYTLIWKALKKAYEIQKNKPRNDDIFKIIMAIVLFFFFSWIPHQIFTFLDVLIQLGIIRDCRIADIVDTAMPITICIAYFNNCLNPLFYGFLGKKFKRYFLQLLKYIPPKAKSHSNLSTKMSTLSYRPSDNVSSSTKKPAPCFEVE

inhibition at 1 µM (human AT1R) [%] | inhibition at 10 µM (human AT1R) [%] | pIC50 (human AT2R fused to Cb23) | pIC50 (human AT1R) | Compound
< 30 | < 30 | 5.21 |  | CCS(=O)(=O)NC(=O)c1ccccc1CN1CCN(c2nc3ccccc3s2)CC1 [Compound A-02, 2-[[4-(1,3-benzo-thiazol-2-yl)piper-azin-1-yl]methyl]-N-ethylsulfonyl-benzamide]
< 30 | < 30 | 4.80 |  | c1ccc(-c2nn[nH]n2)c(CN2CCN(c3nc4ccccc4s3)CC2)c1 [Compound A-03, 2-[4-[[2-(2H-tetrazol-5-yl)phen-yl]-methyl]piper-azin-1-yl]-1,3-benzothiazole]
< 30 | 30 to 50 | 4.78 | 4.60 | c1ccc(N2CCC(Cc3nc4ccccc4s3)CC2)c(-c2nn[nH]n2)c1 [Compound A-06, 2-[[1-[2-(2H-tetrazol-5-yl)phen-yl]-4-piperidyl]-methyl]-1,3-benzo-thiazole]
< 30 | < 30 | 4.87 |  | CCS(=O)(=O)NC(=O)c1ccccc1N1CCN(Cc2nc3ccccc3n2C)CC1 [Compound A-13, N-ethylsulfonyl-2-[4-[(1-methylbenzimidazol-2-yl)methyl]piperazin-1-yl]benzamide]
< 30 | < 30 | 5.32 |  | CCS(=O)(=O)NC(=O)c1ccc(OC(C)C)cc1N1CCN(Cc2nc3ccccc3n2C)CC1 [Compound A-14, N-ethylsulfonyl-4-isopropoxy-2-[4-[(1-methylbenzimidazol-2-yl)methyl]piperazin-1-yl]benzamide]
< 30 | < 30 | 5.93 | 4.32 | CCCc1ccc(-c2nn[nH]n2)c(N2CCN(Cc3nc4ccccc4n3C)CC2)c1 [Compound A-19, 1-methyl-2-[[4-[5-propyl-2-(2H-tetrazol-5-yl)phen-yl]piperazin-1-yl]-methyl]benzimid-azole]
< 30 | < 30 | 6.31 | 4.38 | CC(C)=Cc1ccc(-c2nn[nH]n2)c(N2CCN(Cc3nc4ccccc4n3C)CC2)c1 [Compound A-21, 1-methyl-2-[[4-[5-(2-methylprop-1-enyl)-2-(2H-tetrazol-5-yl)phen-yl]piperazin-1-yl]-methyl]benzimid-azole]
< 30 | < 30 | 5.63 |  | CCOc1ccc(-c2nn[nH]n2)c(N2CCN(Cc3nc4ccccc4n3C)CC2)c1 [Compound A-23, 2-[[4-[5-ethoxy-2-(2H-tetrazol-5-yl)-phenyl]piperazin-1-yl]methyl]-1-meth-yl-benzimidazole]
< 30 | < 30 | 5.08 |  | CC(C)Oc1ccc(-c2nn[nH]n2)c(N2CCC(Cc3nc4ccccc4n3C)CC2)c1 [Compound A-25, 2-[[1-[5-isopropoxy-2-(2H-tetrazol-5-yl)phenyl]-4-piperidyl]methyl]-1-methyl-benzimid-azole]

Continued, compound first:

Compound | inhibition at 1 µM (human AT1R) [%] | inhibition at 10 µM (human AT1R) [%] | pIC50 (human AT2R fused to Cb23) | pIC50 (human AT1R)
c1ccc(N2CCN(Cc3nc4ccccc4s3)CC2)c(-c2nn[nH]n2)c1 [Compound A-05, 2-[[4-[2-(2H-tetrazol-5-yl)phen-yl]piperazin-1-yl]-methyl]-1,3-benzo-thiazole] | < 30 | < 30 | 4.47 | 4.30
CCOC(=O)NS(=O)(=O)c1ccc(C(F)(F)F)cc1N1CCN(Cc2nc3ccccc3n2C)CC1 [Compound A-08, ethyl N-[2-[4-[(1-methylbenzimidazol-2-yl)methyl]piperazin-1-yl]-4-(trifluoromethyl)phenyl]sulfonylcarbamate] | < 30 | < 30 | 5.17 | 4.04
CCCCOC(=O)NS(=O)(=O)c1ccc(C)cc1N1CCN(Cc2nc3ccccc3n2C)CC1 [Compound A-11, butyl N-[4-methyl-2-[4-[(1-methylbenzimidazol-2-yl)methyl]piperazin-1-yl]phenyl]sulfonylcarbamate] | < 30 | < 30 | 6.02 | 4.42
Cn1c(CN2CCN(c3cc(C(F)(F)F)ccc3-c3nn[nH]n3)CC2)nc2ccccc21 [Compound A-17, 1-methyl-2-[[4-[2-(2H-tetrazol-5-yl)-5-(trifluoromethyl)-phenyl]piperazin-1-yl]methyl]benzimid-azole] | < 30 | < 30 | 4.84 | 
C/C=C/c1ccc(-c2nn[nH]n2)c(N2CCN(Cc3nc4ccccc4n3C)CC2)c1 [Compound A-18, 1-methyl-2-[[4-[5-[(E)-prop-1-enyl]-2-(2H-tetrazol-5-yl)-phenyl]piperazin-1-yl]methyl]benz-imidazole] | < 30 | < 30 | 5.41 | 
COc1ccc(-c2nn[nH]n2)c(N2CCN(Cc3nc4ccccc4n3C)CC2)c1 [Compound A-22, 2-[[4-[5-methoxy-2-(2H-tetrazol-5-yl)phenyl]piperazin-1-yl]methyl]-1-methyl-benzimidazole] | < 30 | < 30 | 4.71 | 
O=c1[nH]c(CN2CCN(c3cc(C4CC4)ccc3-c3nn[nH]n3)CC2)nc2ccccc12 [Compound A-28, 2-[[4-[5-cyclopropyl-2-(2H-tetrazol-5-yl)phenyl]piperazin-1-yl]methyl]-3H-quinazolin-4-one] | < 30 | < 30 | 5.45 | 
CCc1ccc(C(=O)NS(=O)(=O)CC)c(N2CCN(Cc3nc4ccccc4s3)CC2)c1 [Compound A-33, 2-[4-(1,3-benzothiazol-2-ylmethyl)piperazin-1-yl]-4-ethyl-N-ethylsulfonyl-benzamide] | < 30 | < 30 | 5.51 | 
CCS(=O)(=O)NC(=O)c1ccc(C(C)C)cc1N1CCN(Cc2nc3ccccc3s2)CC1 [Compound A-34, 2-[4-(1,3-benzo-thiazol-2-ylmethyl)-piperazin-1-yl]-N-ethylsulfonyl-4-iso-propyl-benzamide] | < 30 | < 30 | 6.32 | 
CCS(=O)(=O)NC(=O)c1ccc(C2CC2)cc1N1CCN(Cc2nc3ccccc3s2)CC1 [Compound A-35, 2-[4-(1,3-benzothiazol-2-ylmethyl)piperazin-1-yl]-4-cyclopropyl-N-ethylsulfonyl-benzamide] | < 30 | < 30 | 6.22 | 4.50
CCS(=O)(=O)NC(=O)c1ccc(CC(C)C)cc1N1CCN(Cc2nc3ccccc3s2)CC1 [Compound A-36, 2-[4-(1,3-benzo-thiazol-2-ylmethyl)-piperazin-1-yl]-N-ethylsulfonyl-4-isobutyl-benzamide] | < 30 | < 30 | 5.85 | 
CCc1nc2ccc(NC(=O)C3CC3)cc2c(=O)n1CC1CCN(c2ccccc2-c2nn[nH]n2)CC1 [Compound A-247, N-[2-ethyl-4-oxo-3-[[1-[2-(2H-tetrazol-5-yl)phenyl]-4-piperidyl]methyl]-quinazolin-6-yl]-cyclopropane-carboxamide] |  |  | 4.45 | 
O=c1c2ccccc2nc(-c2ccccc2)n1CC1CCN(c2ccccc2-c2nnn[nH]2)CC1 [Compound A-249, 2-phenyl-3-[[1-[2-(2H-tetrazol-5-yl)phenyl]-4-piperidyl]methyl]quinazolin-4-one] |  |  | 4.10 | 
